Data reported in patent publication US20240189440A1, “TLR7 AND TLR8 AGONISTS FOR THE TREATMENT OF CANCER AND/OR INFECTIOUS DISEASES” (priority 2021, published 2024).

Key:
[1] = test system: NFκB induction (SEAP) in Ramos-blue cells; assay: NFkB activation in Ramos-Blue cells for additional TLR7 agonists (Example 31); assay type: cell-based; details: for EC (2-fold SEAP signal): lowest concentration that doubles the SEAP background (nontreated) signal, read-out: Lowest concentration to induce 2x SEAP; for Fold increase in SEAP signal at lowest active concentration: versus nontreated background
Experimental: A 3× serial dilution was performed in 10% DMSO in PBS for each payload to have a final range of concentration from 1000 uM to 76 nM. Ramos-blue cells (InvivoGen, cat #rms-sp) were cultured using high glucose DMEM media supplied with 10% fetal bovine serum according to the manufacturer guidelines. The media was supplemented with 50 U/mL penicillin, 50 ug/mL streptomycin, and 100 ug/mL normocin to prevent bacterial contamination. The cell density and viability were calculated using a Countess Cell Counter and the proper volume of cells was removed in order to have a seeding density of 0.2×10^6 cells/mL per well. 135 uL of the cell suspension was added to each well in a 96-well plate along with 15 uL of the corresponding payload treatment. Each assay point was run in triplicate and the plate was incubated at 37° C. with 5% CO2 for 24 or 72 hours. In order to assess the NFκB induction, the QUANTI-Blue™ solution was prepared by adding 200 uL of QB reagent (InVivogen cat #rep-qbs) and 200 uL of QB buffer to 19.6 mL of water. The resulting solution was vortexed and incubated at room temperature for ten minutes. The 96-well plate was centrifuged at 1990 rpm for ten minutes and 40 uL of the cell supernatant was added to 160 uL of the prepared QUANTI-Blue™ solution. The QB reaction plate was incubated at 37° C. for 24 hours. The plate was read using the Molecular Devices i3x plate reader at a wavelength of 630 nm to determine the amount of SEAP production. The table below illustrates the lowest concentration of each compound that results in a doubling of the SEAP background (nontreated) signal. As illustrated, compounds of the invention ranged from low nM to low micromolar.

[2] = test system: NFκB pathway in Ramos-blue cells; assay: Ramos-Blue NFκB/SEAP reporter assay with cysteine-capped linker-payloads, 72 h (Example 15); assay type: cell-based; details: cysteine-capped, 72 hours, SEAP at 630 nm, read-out: Relative Activation; for activation at 5 µM: Linker-Payload Dose 5 uM; for activation at 50 µM: Linker-Payload Dose 50 uM
Experimental: A 50 mM cysteine stock was prepared in 0.1 M PBS pH 7.4. 10 equivalents of 50 mM cysteine were added to 1 equivalent of linker-payload to create a 2.50 mM solution. The reaction was vortexed and sat at room temperature for an hour to allow for the Michael addition to occur. After an hour, an aliquot was taken and run via UPLC-MS to ensure for the complete Michael reaction. The reaction was diluted to 1 mM using 0.1M PBS pH 7.4. The 1 mM solution was diluted to 500 uM and 50 uM in a 96-well plate to afford a final concentration of 50 uM and 5 uM in the cell suspension. The cell density and viability were calculated using the Countess Cell Counter and the proper volume of cells was removed in order to have a seeding density of 0.2×10^6 cells/mL per well. 135 uL of cell suspension was added to each well in a 96-well plate along with 15 uL of the corresponding linker-payload treatment. Each concentration was run in triplicate and incubated at 37° C. with 5% CO2 for 72 hours.
Invivogen's QUANTI-Blue™ solution was prepared by adding 200 uL of QB reagent and 200 uL of QB buffer to 19.6 mL of water. The resulting solution was vortexed and incubated at room temperature for ten minutes. The 96-well plate was centrifuged at 1990 rpm for ten minutes. Then, 40 uL of cell supernatant was added to 160 uL of the prepared QUANTI-Blue™ solution and incubated at 37° C. for 24 hours. The plate was read using the Molecular Devices i3x plate reader at a wavelength of 630 nm to determine the amount of SEAP production.

Molecule	EC (2-fold SEAP signal) [1] [µM]	Fold increase in SEAP signal at lowest active concentration [1]	activation at 5 µM [2] [%]	activation at 50 µM [2] [%]
CCCCc1nc2c(N)nc3ccccc3c2n1Cc1ccc(NC(=O)CCCNC(=O)OC(C)(C)C)cc1 [20c, tert-butyl(4-((4-((4-amino-2-butyl-1H-imidazo[4,5-c]quinolin-1-yl)methyl)phenyl)amino)-4-oxobutyl)carbamate]	0.0076	2.352		
CCCCc1nc2c(N)nc3ccccc3c2n1Cc1ccc(NC(=O)CCCCNC(=O)OC(C)(C)C)cc1 [20d, tert-butyl(5-((4-((4-amino-2-butyl-1H-imidazo[4,5-c]quinolin-1-yl)methyl)phenyl)amino)-5-oxopentyl)carbamate]	0.0076	2.222		
CCCCc1nc2c(N)nc3ccccc3c2n1Cc1ccc(NC(=O)CCCCCNC(=O)OC(C)(C)C)cc1 [20e, tert-butyl(6-((4-((4-amino-2-butyl-1H-imidazo[4,5-c]quinolin-1-yl)methyl)phenyl)amino)-6-oxohexyl)carbamate]	0.069	2.983		
CCCCc1nc2c(N)nc3ccccc3c2n1Cc1ccc(NC(=O)CN)cc1 [20f, 2-amino-N-(4-((4-amino-2-butyl-1H-imidazo[4,5-c]quinolin-1-yl)methyl)phenyl)acetamide]	0.069	2.225		
CCCCc1nc2c(N)nc3ccccc3c2n1Cc1ccc(NC(=O)CCN)cc1 [20g, 3-amino-N-(4-((4-amino-2-butyl-1H-imidazo[4,5-c]quinolin-1-yl)methyl)phenyl)propanamide]	0.62	2.638		
CCCCc1nc2c(N)nc3ccccc3c2n1Cc1ccc(NC(=O)CCCCCN)cc1 [20j, 6-amino-N-(4-((4-amino-2-butyl-1H-imidazo[4,5-c]quinolin-1-yl)methyl)phenyl)hexanamide]	0.21	2.802		
CCCCC(=O)Nc1ccc(Cn2c(CCCC)nc3c(N)nc4ccccc4c32)cc1 [20k, N-(4-((4-amino-2-butyl-1H-imidazo[4,5-c]quinolin-1-yl)methyl)phenyl)pentanamide]	0.0076	2.398		
CCCCc1nc2c(N)nc3ccccc3c2n1Cc1ccc(NC(C)=O)cc1 [20l, N-(4-((4-amino-2-butyl-1H-imidazo[4,5-c]quinolin-1-yl)methyl)phenyl)acetamide]	0.023	2.11		
CCCCc1nc2c(N)nc3ccccc3c2n1Cc1ccc(NC(=O)OCC)cc1 [20m, ethyl (4-((4-amino-2-butyl-1H-imidazo[4,5-c]quinolin-1-yl)methyl)phenyl)carbamate]	0.023	3.188		
CCCCc1nc2c(N)nc3ccccc3c2n1Cc1ccc(NC(=O)OC(C)C)cc1 [20n, Isopropyl (4-((4-amino-2-butyl-1H-imidazo[4,5-c]quinolin-1-yl)methyl)phenyl)carbamate]	0.0076	1.925		
CCCCOC(=O)Cc1ccc(Cn2c(CCCC)nc3c(N)nc4ccccc4c32)cc1 [20o, Butyl 2-(4-((4-amino-2-butyl-1H-imidazo[4,5-c]quinolin-1-yl)methyl)phenyl)acetate]	0.069	4.158		
CCCCc1nc2c(N)nc3ccccc3c2n1Cc1cccc(OC)c1 [21e, 2-butyl-1-(3-methoxybenzyl)-1H-imidazo[4,5-c]quinoline-4-amine]	0.62	5.753		
CCCCc1nc2c(N)nc3ccccc3c2n1Cc1cccc(O)c1 [21f, 3-((4-amino-2-butyl-1H-imidazo[4,5-c]quinolin-1-yl)methyl)phenol]	0.21	2.902		
CCCCc1nc2c(N)nc3ccccc3c2n1Cc1ccc(OC)cc1 [22e, 2-butyl-1-(4-methoxybenzyl)-1H-imidazo[4,5-c]quinolin-4-amine]	0.21	2.537		
CCCCc1nc2c(N)nc3ccccc3c2n1Cc1ccc(O)cc1 [22f, 4-((4-amino-2-butyl-1H-imidazo[4,5-c]quinolin-1-yl)methyl)phenol]	0.069	2.269		
CCCCc1nc2c(N)nc3ccccc3c2n1Cc1cccc(NC(=O)OC(C)(C)C)c1 [23e, Tert-butyl (3-((4-amino-2-butyl-1H-imidazo[4,5-c]quinoline-1-yl)methyl)phenyl)carbamate]	1.87	4.344		
CCCCc1nc2c(N)nc3ccccc3c2n1Cc1cccc(N)c1 [23f, 1-(3-aminobenzyl)-2-butyl-1H-imidazo[4,5-c]quinoline-4-amine]	0.023	1.946		
CCCCc1nc2c(N)nc3ccccc3c2n1Cc1ccc(CNC(=O)CCCCCN2C(=O)C=CC2=O)cc1 [Mc_E66, N-(4-((4-amino-2-butyl-1H-imidazo[4,5-c]quinolin-1-yl)methyl)benzyl)-6-(2,5-dioxo-2,5-dihydro-1H-pyrrol-1-yl)hexanamide]			119	-52.3
CCCCc1nc2c(N)nc3ccccc3c2n1Cc1ccc(NC(=O)CCCCCN2C(=O)C=CC2=O)cc1 [Mc_E104, N-(4-((4-amino-2-butyl-1H-imidazo[4,5-c]quinolin-1-yl)methyl)phenyl)-6-(2,5-dioxo-2,5-dihydro-1H-pyrrol-1-yl)hexanamide]			704	-52
CCOCc1nc2c(NC(=O)CCCCCN3C(=O)C=CC3=O)nc3ccccc3c2n1CC(C)(C)O [Mc_Resiquimod, 6-(2,5-dioxo-2,5-dihydro-1H-pyrrol-1-yl)-N-(2-(ethoxymethyl)-1-(2-hydroxy-2-methylpropyl)-1H-imidazo[4,5-c]quinolin-4-yl)hexanamide]			17.6	-21
CCCCc1nc2c(N)nc3ccccc3c2n1Cc1ccc(CNC(=O)OCc2ccc(NC(=O)C(CCCNC(N)=O)NC(=O)C(NC(=O)CCCCCN3C(=O)C=CC3=O)C(C)C)cc2)cc1 (stereo not shown) [Mc_ValCitPABC_E66, 4-(2-(2-(6-(2,5-Dioxo-2,5-dihydro-1H-pyrrol-1-yl)hexanamido)-3-methylbutanamido)-5-ureidopentanamido)benzyl 4-((4-amino-2-butyl-1H-imidazo[4,5-c]quinolin-1-yl)methyl)benzylcarbamate]			7.15	-19.7
CCCCc1nc2c(N)nc3ccccc3c2n1Cc1ccc(NC(=O)OCc2ccc(NC(=O)C(CCCNC(N)=O)NC(=O)C(NC(=O)CCCCCN3C(=O)C=CC3=O)C(C)C)cc2)cc1 (stereo not shown) [Mc_ValCitPABC_E104, 4-(2-(2-(6-(2,5-dioxo-2,5-dihydro-1H-pyrrol-1-yl)hexanamido)-3-methylbutanamido)-5-ureidopentanamido)benzyl 4-((4-amino-2-butyl-1H-imidazo[4,5-c]quinolin-1-yl)methyl)phenylcarbamate]			12.7	-19.2
(3-((4-((4-amino-2-butyl-1H-imidazo[4,5-c]quinolin-1-yl)methyl)phenyl)amino)-3-oxopropyl)carbamate [20b]	0.0076	4.416		
